Literature values in paper PMC11478287, “Design and Synthesis of Pyridyl and 2-Hydroxyphenyl Chalcones with Antitubercular Activity” (Molecules, 2024).

Test system: PtpA
Parameters: method as in PMID 18930396
Details: cited from earlier work

## COc1cc(C(=O)/C=C/c2ccc3c(c2)OCO3)cc(OC)c1OC [Compound 2]
  PtpA inhibition activity (in words): very low PtpA inhibition activity
